The results in this text go back to PubChem BioAssay (NCI).

SMILES strings stand for the structures.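 Following 48 hours of exposure in 96-well plates, responses at five concentrations were used to interpolate endpoints linearly. Here, GI50 denotes the concentration required for 50% inhibition of growth. TGI marks complete inhibition of growth.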 Bounds are passed on as bounds.

What all share (experiment): NCI anticancer screen, dose series, 48 h
Assay [1] deals with HOP-62 NSCLC.
The subject of assay [2] is HOP-92 NSCLC.
Assay [3] has as its system HT29 colon.
Assay [4] has as its system K-562 leukemia.
Assay [5] deals with MCF7 breast.
For assay [6], the system named is NCI-H226 lung.
The subject of assay [7] is OVCAR-3 ovarian.
For assay [8], the system named is SF-295 CNS.
In assay [9] the test system is SK-MEL-28 melanoma.
Assay [10] deals with LOX IMVI melanoma.

With `Cc1ccc(N=Nc2c(O)c(C(=O)O)cc3ccccc23)cc1C`, the TGI in assay [1], in [2], in assay [3], in assay [4], in [5] and in [6] was more than 100 µM each time. Further, the TGI in assay [7], in assay [8] and in assay [9] was more than 100 µM in each case.

As for `CCCCCCCCCCCCCCCCN1CC2CCCCC2C1` (stereo unspecified), the GI50 in assay [1] was 12.5 µM; in assay [2], 2.38 µM; in assay [4], 3.54 µM; in assay [10], 3.77 µM; in [5], 9.57 µM; in assay [6] it was 4.2 µM. The GI50 in assay [7] is 17.6 µM; in assay [8], 14.6 µM. In addition, the TGI in [1] is 25.7 µM; in [2], 6.52 µM; in [4] it was 11.2 µM; in assay [10], 13.8 µM; in assay [5] it was more than 100 µM; in [6], 16.8 µM. Also, the TGI was determined as 34.1 µM in [7] and 37 µM in [8].

With `CCCCCCCCCCCC(=O)OCC1OC(n2cc(F)c(=O)[nH]c2=O)C(NC(=O)OCc2ccccc2)C(OC(=O)CCCCCCCCCCC)C1O` (stereo unspecified), the TGI in [1], in assay [2], in assay [3], in assay [4], in assay [10] and in assay [6] was more than 100 µM each time. The TGI in assay [7], in assay [8] and in [9] was more than 100 µM throughout.

Consider `O=C(O)/C=C\C(=O)N1C/C(=C\c2ccccc2Cl)C(=O)/C(=C/c2ccccc2Cl)C1`, for which the GI50 in assay [1] is 3.4 µM; in assay [2] it was 4.43 µM; in [4] it was 2.44 µM; in [10], 1.56 µM; in [5] it was 1.09 µM; in assay [6] it was 1.97 µM. Also, the GI50 in [7] was 2.4 µM; in assay [8], 4.4 µM; in [9] it was 2.88 µM. Further, the TGI in [1] was determined as 8.26 µM; in assay [2], 15.5 µM; in [4] it was 82 µM; in assay [10], 3.71 µM; in assay [5], 10.4 µM; in assay [6], 3.84 µM. Also, the values for the TGI in [7], in assay [8] and in [9] were 5.51 µM, 16.5 µM and 9.09 µM, respectively.

For `NNC(=O)/C(=C/c1ccc(Cl)cc1Cl)NC(=O)c1ccccc1`, the TGI in assay [1], in assay [2], in assay [3], in assay [4], in [10] and in [6] was more than 100 µM in each case. For the same molecule, the TGI in [7], in assay [8] and in assay [9] was more than 100 µM in each case.

For the molecule `CC#C[C@]1(O)CC[C@H]2[C@@H]3CCC4=CC(=O)CCC4=C3[C@@H](c3ccc4c(c3)OCO4)C[C@@]21C`, the GI50 was 120 µM in assay [1]; 17.7 µM in assay [2]; 225 µM in assay [3]; 113 µM in assay [10]; 77.2 µM in assay [5]; 140 µM in assay [6]. The GI50 in assay [7] is 110 µM; in assay [8], 67.8 µM; in assay [9] it was 85.8 µM. Also, the TGI is 400 µM in assay [1]; 131 µM in assay [2]; more than 1000 µM in assay [3]; 253 µM in assay [10]; more than 1000 µM in assay [5]; 617 µM in assay [6]. In addition, the TGI in assay [7] turned out to be 320 µM; in assay [8], 329 µM; in assay [9], 276 µM.

With `COc1ccc(-c2ccc(/C=N/n3c(COc4ccc(Cl)cc4Cl)nn(CN4CCOCC4)c3=S)o2)c([N+](=O)[O-])c1`, the GI50 in assay [1] was 35.9 µM; in assay [2] it was 0.829 µM; in [3] it was 42 µM; in assay [4] it was 18.2 µM; in assay [5] it was 20.7 µM; in assay [7], 14.6 µM. For the same molecule, the GI50 is 17.4 µM in [8] and 27.7 µM in [9]. For the same molecule, the TGI is more than 100 µM in assay [1]; 27.6 µM in assay [2]; more than 100 µM in [3]; 46.6 µM in [4]; 77.3 µM in assay [5]; 37.9 µM in [7]. The TGI stood at 46.9 µM in assay [8] and 86.8 µM in assay [9].

Consider `C/C(=N\NS(=O)(=O)c1ccccc1)c1ccc(Cl)c(Cl)c1`, for which the TGI in assay [1], in assay [2], in [3], in assay [4], in assay [10] and in assay [6] was more than 100 µM in each case. Besides, the TGI in assay [7], in assay [8] and in [9] was more than 100 µM each time.

In the case of `Cc1c(C(=O)C/C(=N\O)C(=O)Nc2cc(Cl)c(Cl)cc2Cl)[n+](=O)c2ccccc2n1[O-]`, the TGI in assay [1] was more than 100 µM; in [2], 46.2 µM; in assay [3], more than 100 µM; in assay [4] it was more than 100 µM; in [10], 43.6 µM; in assay [6], 37.5 µM. Besides, the TGI in [7] turned out to be 7.52 µM; in assay [8], 53.5 µM; in assay [9], 52.1 µM.

Consider `CCCCCCCCN=C(N)c1ccc(N2CCN(c3ccc(C(N)=NCCCCCCCC)cc3)CC2)cc1`, for which the GI50 in assay [1] is 7.14 µM; in [2], 14.9 µM; in assay [3], 1.61 µM; in [4], 1.46 µM; in [10], 1.92 µM; in [6], 1.6 µM. The GI50 in [7] is 0.931 µM; in assay [8], 1.1 µM; in assay [9], 2.74 µM. Also, the TGI in assay [1] is 15 µM; in [2] it was more than 50 µM; in assay [3], 13.6 µM; in assay [4] it was more than 50 µM; in assay [10], 9.01 µM; in assay [6], 5.44 µM. Also, the TGI in assay [7] is 3.2 µM; in assay [8] it was 2.79 µM; in [9] it was 17.2 µM.
